In the experiment the test system is U251-MG cells. As to the kind of experiment: Half-maximal cell-inhibitory concentration on U251-MG cells (CCK-8). In kind it is cell-based. As to conditions: Homo sapiens, U-251, U251-MG cells (DHX33-overexpressing cancer cell strain), 48 hours, read-out: IC50 (half-maximal inhibitory concentrations of compounds on U251-MG cells). As for the experimental part:
U251-MG cells were purchased from the cell bank of the Chinese Academy of Sciences. Cells were cultured in MEM medium containing 10% fetal bovine serum (FBS), 2 mM L-glutammie, streptomycmn and penicillin. The growth conditions were set as follows: a humidified cell incubator (37° C., 5% CO2). Cells were passaged every 3 days and were discarded after 10 passages.
U251-MG cells (a […]-overexpressing cancer cell strain) were seeded on a 96-well plate at 1×10^4 cells/100 μl/well. After the cells were completely attached, the compounds were added to the cell culture medium at a concentration of 5 nM, 10 nM, 25 nM, 50 nM, 100 nM, […], 500 nM, 1000 nM, 2000 nM, […] or 20 μM, and the resulting mixture was uniformly mixed with a multichannel pipette. After the cells were incubated with the compound for 48 hours, CCK-8 reagent (Yeasen Biotechnology (Shanghai) Co., Ltd.) was added to the medium in the 96-well plate in accordance with the standard procedure. After being incubated for 2 hours, the plate was read with a microplate reader (OD=450 nm). The experiment was repeated three times, the inhibition curve of the compound at different concentrations was plotted, and the half-maximal inhibitory concentration (IC50) of the compound was calculated.

Consider `Cc1oc(-n2c(C)cc(/C=C(\C#N)c3nc4ccc(Cl)cc4[nH]3)c2C)c(C#N)c1C` [AB24201, (E)-2-(3-(2-(6-chloro-1H-benzo[d]imidazol-2-yl)-2-cyanovinyl)-2,5-dimethyl-1H-pyrrol-1-yl)-4,5-dimethylfuran-3-carbonitrile], for which the IC50 was 1 to 5 µM.
With `Cc1ccc2nc(/C(C#N)=C/c3cc(C)n(-c4oc(C)c(C)c4C#N)c3C)[nH]c2c1` [AB24203, (E)-2-(3-(2-cyano-2-(6-methyl-1H-benzo[d]imidazol-2-yl]vinyl)-2,5-dimethyl-1H-pyrrol-1-yl)-4,5-dimethylfuran-3-carbonitrile] the figure was 1 to 5 µM; with `Cc1oc(-n2c(C)cc(/C=C(\C#N)c3nc4ccc(C(=O)NCCN(C)C)cc4[nH]3)c2C)c(C#N)c1C` [AB24206, (E)-2-(1-cyano-2-(1-(3-cyano-4,5-dimethylfuran-2-yl)-2,5-dimethyl-1H-pyrrol-3-yl)vinyl)-N-(2-(dimethylamino)ethyl)-1H-benzo[d]imidazole-6-carboxamide], 1 to 5 µM; with `CCOC(=O)c1ccc2nc(/C(C#N)=C/c3cc(C)n(-c4oc(C)c(C)c4C#N)c3C)[nH]c2c1` [AB24208, ethyl (E)-2-(1-cyano-2-(1-(3-cyano-4,5-dimethylfuran-2-yl)-2,5-dimethyl-1H-pyrrol-3-yl)vinyl)-1H-benzo[d]imidazole-6-carboxylate], 5 to 20 µM.
With `Cc1oc(-n2c(C)cc(/C=C(\C#N)c3nc4ccc(Br)cc4[nH]3)c2C)c(C#N)c1C` [AB24213, (E)-2-(3-(2-(6-bromo-1H-benzo[d]imidazol-2-yl)-2-cyanovinyl)-2,5-dimethyl-1H-pyrrol-1-yl)-4,5-dimethylfuran-3-carbonitrile] the figure was 1 to 5 µM; with `Cc1oc(-n2c(C)cc(/C=C(\C#N)c3nc4cc(Cl)c(Cl)cc4[nH]3)c2C)c(C#N)c1C` [AB24214, (E)-2-(3-(2-cyano-2-(5,6-dichloro-1H-benzo[d]imidazol-2-yl)vinyl)-2,5-dimethyl-1H-pyrrol-1-yl)-4,5-dimethylfuran-3-carbonitrile], 5 to 20 µM.
Then `Cc1oc(-n2c(C)cc(/C=C(\C#N)c3nc4ccc([N+](=O)[O-])cc4[nH]3)c2C)c(C#N)c1C` [AB24217, (E)-2-(3-(2-cyano-2-(6-nitro-1H-benzo[d]imidazol-2-yl)vinyl)-2,5-dimethyl-1H-pyrrol-1-yl)-4,5-dimethylfuran-3-carbonitrile], with 5 to 20 µM; and `Cc1oc(-n2c(C)cc(/C=C(\C#N)c3nc4ccc(N)cc4[nH]3)c2C)c(C#N)c1C` [AB24221, (E)-2-(3-(2-(6-amino-1H-benzo[d]imidazol-2-yl)-2-cyanovinyl)-2,5-dimethyl-1H-pyrrol-1-yl)-4,5-dimethylfiran-3-carbonitrile], with 5 to 20 µM; and `Cc1cc(/C=C(\C#N)c2nc3ccccc3[nH]2)c(C)n1-c1ccc(C#N)cc1` [AB24223], with 5 to 20 µM.
On to `Cc1oc(-n2c(C)cc(/C=C(\C#N)c3nc4ccc(CO)cc4[nH]3)c2C)c(C#N)c1C` [AB24225, (E)-2-(3-(2-cyano-2-(6-(hydroxymethyl)-1H-benzo[d]imidazol-2-yl)vinyl)-2,5-dimethyl-1H-pyrrol-1-yl)-4,5-dimethylfuran-3-carbonitrile], for which the IC50 lay within 1 to 5 µM.
Then `Cc1cc(/C=C(\C#N)c2nc3ccccc3[nH]2)c(C)n1-c1ccccc1C#N` [AB24227], with 5 to 20 µM; and `COc1cc2nc(/C(C#N)=C/c3cc(C)n(-c4oc(C)c(C)c4C#N)c3C)[nH]c2cc1OC` [AB24229, (E)-2-(3-(2-cyano-2-(5,6-dimethoxy-1H-benzo[d]imidazol-2-yl)vinyl)-2,5-dimethyl-H-pyrrol-1-yl)-4,5-dimethylfuran-3-carbonitrile], with 1 to 5 µM; and `Cc1cc(/C=C(\C#N)c2nc3ccccc3[nH]2)c(C)n1-c1cccs1` [AB24233], with 5 to 20 µM.
As to `Cc1ccc(-n2c(C)cc(/C=C(\C#N)c3nc4ccccc4[nH]3)c2C)cc1` [AB24237], the IC50 fell in the range of 5 to 20 µM.
Then `Cc1oc(-n2c(C)cc(/C=C(\C#N)c3nc4cc(Cl)cc(Cl)c4[nH]3)c2C)c(C#N)c1C` [AB24239], with 1 to 5 µM; and `COc1cc2[nH]c(/C(C#N)=C/c3cc(C)n(-c4oc(C)c(C)c4C#N)c3C)nc2cc1F` [AB24246, (E)-2-(3-(2-cyano-2-(5-fluoro-6-methoxy-1H-benzo[d]imidazol-2-yl]vinyl)-2,5-dimethyl-1H-pyrrol-1-yl)-4,5-dimethylfuran-3-carbonitrile], with 1 to 5 µM.
With `Cc1cc(/C=C(\C#N)c2nc3ccccc3[nH]2)c(C)n1-c1ccccn1` [AB24258] the figure was 5 to 20 µM.
Then `COc1cc2[nH]c(/C(C#N)=C/c3cc(C)n(-c4oc(C)c(C)c4C#N)c3C)nc2cc1Br` [AB24266, (E)-2-(3-(2-(5-bromo-6-methoxy-1H-benzo[d]imidazol-2-yl]-2-cyanovinyl)-2,5-dimethyl-1H-pyrrol-1-yl)-4,5-dimethylfuran-3-carbonitrile], with 1 to 5 µM.
As to `CC(=O)Nc1ccc(-n2c(C)cc(/C=C(\C#N)c3nc4ccccc4[nH]3)c2C)cc1` [AB24267], the IC50 is 5 to 20 µM.
`COC(=O)c1c(-n2c(C)cc(/C=C(\C#N)c3nc4ccccc4[nH]3)c2C)sc(C)c1C` [AB24273, methyl (E)-2-(3-(2-(1H-benzo[d]imidazol-2-yl)-2-cyanovinyl)-2,5-dimethyl-1H-pyrrol-1-yl)-4,5-dimethylthiophene-3-carboxylate]: the IC50 was in the range of 0.1 to 1 µM.
Then `Cc1cc(/C=C(\C#N)c2nc3ccccc3[nH]2)c(C)n1-c1csc(C#N)c1` [AB24276], with 5 to 20 µM.
With `Cc1csc(-n2c(C)cc(/C=C(\C#N)c3nc4ccccc4[nH]3)c2C)c1C#N` [AB24277] the figure was 5 to 20 µM; with `COc1ccc2nc(/C(C#N)=C/c3cc(C)n(-c4oc(C)c(C)c4C#N)c3C)[nH]c2n1` [AB24281, (E)-2-(3-(2-cyano-2-(5-methoxy-3H-imidazo[4,5-b]pyridin-2-yl)vinyl)-2,5-dimethyl-1H-pyrrol-1-yl)-4,5-dimethylfuran-3-carbonitrile], 1 to 5 µM.
With `Cc1nn(-c2ccccc2)c(C)c1/C=C(\C#N)c1nc2ccccc2[nH]1` [AB24284, (E)-2-(1H-benzo[d]imidazol-2-yl)-3-(3,5-dimethyl-1-phenyl-1H-pyrazol-4-yl)acrylonitrile] the figure was 5 to 20 µM.
`Cc1nn(-c2cccc(C(F)(F)F)c2)c(C)c1/C=C(\C#N)c1nc2ccccc2[nH]1` [AB24285, (E)-2-(1H-benzo[d]imidazol-2-yl)-3-(3,5-dimethyl-1-(3-(trifluoromethyl)phenyl)-1H-pyrazol-4-yl)acrylonitrile]: the IC50 fell in the range of 5 to 20 µM.
Then `Cc1oc(-n2c(C)cc(/C=C(\C#N)c3nc4cc5c(cc4[nH]3)OCCO5)c2C)c(C#N)c1C` [AB24287, (E)-2-(3-(2-cyano-2-(6,7-dihydro-1H-[1,4]dioxin[2′,3′: 4,5]benzo[1,2-d]imidazol-2-yl)vinyl)-2,5-dimethyl-1H-pyrrol-1-yl)-4,5-dimethylfuran-3-carbonitrile], with 1 to 5 µM; and `COc1cc2nc(/C(C#N)=C/c3cc(C)n(-c4ccncc4Cl)c3C)[nH]c2cn1` [AB24289, (E)-3-(1-(3-chloropyridin-4-yl)-2,5-dimethyl-1H-pyrrol-3-yl)-2-(6-methoxy-3H-imidazo[4,5-c]pyridin-2-yl)acryonitrile], with 1 to 5 µM; and `Cc1nn(-c2ccccc2OC(F)(F)F)c(C)c1/C=C(\C#N)c1nc2ccccc2[nH]1` [AB24290, (E)-2-(1H-benzo[d]imidazol-2-yl)-3-(3,5-dimethyl-1-(2-(trifluoromethoxy)phenyl)-1H-pyrazol-4-yl)acrylonitrile], with 5 to 20 µM.
With `COc1cc2nc(/C(C#N)=C/c3cc(C)n(-c4ccncc4C)c3C)[nH]c2cn1` [AB24295, (E)-3-(2,5-dimethyl-1-(3-methylpyridin-4-yl)-1H-pyrrol-3-yl)-2-(6-methoxy-3H-imidazo[4,5-c]pyridin-2-yl)acrylonitrile] the figure was 1 to 5 µM; with `COc1cc2nc(/C(C#N)=C/c3cc(C)n(-c4ccncc4F)c3C)[nH]c2cn1` [AB24300, (E)-3-(1-(3-fluoropyridin-4-yl)-2,5-dimethyl-1H-pyrrol-3-yl)-2-(6-methoxy-3H-imidazo[4,5-c]pyridin-2-yl)acrylonitrile], 1 to 5 µM.
Then `COc1cnc2[nH]c(/C(C#N)=C/c3cc(C)n(-c4sc(C)c(C)c4C#N)c3C)nc2c1` [AB24301, (E)-2-(3-(2-cyano-2-(6-methoxy-3H-imidazo[4,5-b]pyridin-2-yl)vinyl)-2,5-dimethyl-1H-pyrrol-1-yl)-4,5-dimethylthiophene-3-carbonitrile], with 0.1 to 1 µM.
For `COc1cncc2nc(/C(C#N)=C/c3cc(C)n(-c4sc(C)c(C)c4C#N)c3C)[nH]c12` [AB24302, (E)-2-(3-(2-cyano-2-(7-methoxy-1H-imidazo[4,5-c]pyridyl-2-yl)vinyl)-2,5-dimethyl-1H-pyrrol-1-yl)-4,5-dimethylthiophene-3-carbonitrile], the IC50 lay within 1 to 5 µM.
With `COc1ccc2nc(/C(C#N)=C/c3cc(C)n(-c4ccccc4C#N)c3C)[nH]c2c1` [AB24307, (E)-2-(3-(2-cyano-2-(6-methoxy-1H-benzo[d]imidazol-2-yl]vinyl)-2,5-dimethyl-1H-pyrrol-1-yl)benzonitrile] the figure was 5 to 20 µM.

These data come from patent US20230146233A1, “A CLASS OF POLYCYCLIC COMPOUNDS INHIBITING RNA HELICASE DHX33 AND THE APPLICATION THEREOF” (Shenzhen KeYe Life Technologies, Co., Ltd, priority 2020, published 2023).
